In patent EP0519427A2, “N-substituted-3-iodopropiolamide, production and use thereof” (priority 1991, dated 1992):

Legend:
[1] = system: Coriolus versicolor(L. ex Fr.) Quélet, FFPRI 1030; assay: Preserving activity for wood preservatives (weight loss of treated wood); type: cell-based; conditions: beech sapwood specimens, 110 ± 10 g/m² preservative applied (0.5% xylene solution per table note), eight weeks at 26 ± 2 °C; lower = higher preserving activity
Experimental: (§1) This test was conducted according to Specification No.1 of Japan Wood Preserving Association, enacted in 1979, amended in 1989 and titled "Test methods of preserving activity for wood preservatives used in the coating, spraying and dipping treatment".
(§2) • ① Tyromyces palustris (Ber. et Curt.) Murr., FFPRI 0507 --"Ouzuratake" • ② Coriolus versicolor(L. ex Fr.) Quélet, FFPRI 1030 --"Kawaratake"
(§3) These two fungi are classified as wood rot fungi.
(§4) Culture media comprised culture jars (cylindrical jars of bottom diameter 8-9 cm, opening diameter 6-7 cm and height 15-18 cm), in which quartz sand of 250 g (the size of which corresponds to 20-30 mesh) was put first, and then the solution of 70 ml containing 2.0 % malt extracts and 1.0 % peptone was introduced, over which chips of the beech or other broadleaf tree were spread at about 2 mm thickness, and then sterilized at 120 °C for 30 minutes in the wet heated sterilizer.
(§5) Fungi were cultured at 26 ± 2 °C with shaking using the culture solution of 2.0 % malt extracts and 1.0 % peptone. After sufficient breeding was obtained, the fungi solution of about 3 ml was spread all over the culture medium, and then the fungi were cultured at 26 ± 2 °C with the relative humidity of over 70 %. After 10-15 days when the fungi layer sufficiently covered the culture medium, the fungi were served for the tests.
(§6) Wood specimens were the sapwood of intact cedar and beech, the dimension of which was 5 mm thick, 20 mm wide and 40 mm long. The grain face was of 20 mm width and 40 mm length. The side faces were treated with cold-setting epoxy resin.
(§7) The antimicrobial operation was performed with specifying types of fungi for corresponding type of trees. The combinations were as follows: Cedar----Tyromyces palustris ("Ouzuratake") Beech----Coriolus versicolor ("Kawaratake")
(§8) The test specimens were of two types, treated and untreated specimens, respectively.
(§9) The treated specimens referred to the wood specimens coated by brushing, spraying or dipping with wood preservatives. The amount of applied preservatives was 110 ± 10 g/m².
(§10) The amount of applied preservatives for each test specimen was calculated by the following equation:
(§11) The amount of applied preservatives (g/m²)=(W₁-W₂)/A wherein W₁ : weight of the test specimen after absorption(g), W₂ : weight of the test specimen before absorption(g) and A: surface area of test specimen except both butt surfaces (m²)
(§12) 2-7-1 The test specimens prepared in the previous section were dried at 60 ± 2 °C with a recirculating dryer for 48 hours, and were allowed to stand in a desiccator for about 30 minutes, and then the weight (W₃) was measured to an accuracy of 0.01 g.
(§13) 2-7-2 Three of each treated and untreated specimens were assembled in the Teflon casing. After sterilizing, the two assemblies were put on their 40 × 5 mm face on the fungi layer in the separate jar. They were kept at 26 ± 2 °C under the relative humidity of over 70 % for eight weeks.
(§14) 2-7-3 After the eight weeks had elapsed, the test specimens were taken out, and mycelia and other attachments of them were removed neatly. After air-drying for 24 hours, the test specimens were dried at 60 ± 2 °C in a recirculating dryer for 48 hours, and were allowed to stand in a desiccator for about 30 minutes, and then the weight (W₄) was measured to an accuracy of 0.01 g.
(§15) The test results were presented by the ratio of average weight loss of test specimens due to antimicrobial operation. The standard deviation and coefficient of variation were also determined. The ratio of weight loss for each test specimen was calculated by the following equation, and its average was also determined: The ratio of weight loss(%) = (W₃ - W₄) / W₃ × 100 [formula] . Lower value of the ratio of weight loss corresponds to higher wood preserving activity. […]

[2] = system: Tyromyces palustris (Ber. et Curt.) Murr., FFPRI 0507; assay: as above; type: cell-based; conditions: cedar sapwood specimens, 110 ± 10 g/m² preservative applied (0.5% xylene solution per table note), eight weeks at 26 ± 2 °C; lower = higher preserving activity
Experimental: as §1, §2, §3, §4, §5, §6, §7, §8, §9, §10, §11, §12, §13, §14, §15

[3] = system: Coptofermes formosanus SHIRAKI; assay: Anti-termite activity, contact toxicity on treated quartz sand; type: in vivo
Experimental: This test was conducted on the basis of the method described in Specification No.11 of Japan Wood Preserving Association, enacted in 1981 and titled "The test methods of anti-termite activity for anti-termite agent used in the coating, spraying and dipping treatment, (1) Laboratory test methods".
The termite to be used was Coptofermes formosanus SHIRAKI ("ieshiroari").
4-2-1 The treated quartz sand was prepared as follows : The quartz sand, which passed through a sieve with 60 mesh screen, of 3 g was mixed with the BACTRO-AGAR solution of 1 ml with good agitation. Then, water content was adjusted to 5 %.
4-2-2 The test quartz sand was prepared as follows : The anti-termite agent solution of intended concentration (ppm) was added to the above treated quartz sand, then was mixed, and then was allowed to stand for 14 days to vaporize solvents.
4-2-3 The test quartz sand of 4 g were put into a Petri dish (6 cm in diameter) sterilized with dry heat.
4-2-4 Ten termite workers were randomly sampled from their nest, and then put on the quartz sand.
4-2-5 Each Petri dish was placed in a vessel containing water in the bottom, and then the vessel was allowed to stand in the constant temperature room at 28 ± 2 °C for 14 days. The number of the dead termites was observed and recorded. The first day : every 2 hours for 8 hours. After the second day : every 24 hour.
4-2-6 Test was repeated three times for each concentration of anti-termite agent solution.
4-3-1 Each time when observing, the number of healthy termites and dead termites were recorded.
4-3-2 The results are shown below in Table 4. […]

[4] = concentration 100 ppm, term of contact 1 day
[5] = concentration 100 ppm, term of contact 2 days
[6] = concentration 100 ppm, term of contact 3 days
[7] = concentration 100 ppm, term of contact 5 days
[8] = concentration 1000 ppm, term of contact 1 day
[9] = concentration 1000 ppm, term of contact 2 days
[10] = concentration 1000 ppm, term of contact 3 days
[11] = concentration 1000 ppm, term of contact 5 days

## CC(C)(C)NC(=O)C#CI [Example 1, N-(tert-Butyl)-3-iodopropiolamide]
[1]
  Ratio of weight loss (%), C. versicolor: 11.9%
[2]
  Ratio of weight loss (%), T. palustris: 2.4%
[3]; [4]
  Death rate (%): 0%
[3]; [5]
  Death rate (%): 0%
[3]; [6]
  Death rate (%): 30%
[3]; [7]
  Death rate (%): 100%
[3]; [8]
  Death rate (%): 0%
[3]; [9]
  Death rate (%): 50%
[3]; [10]
  Death rate (%): 100%
[3]; [11]
  Death rate (%): 100%

## CCCCCCCCCCNC(=O)C#CI [Example 2, N-(n-Decyl)-3-iodopropiolamide]
[1]
  Ratio of weight loss (%), C. versicolor: 15.9%
[2]
  Ratio of weight loss (%), T. palustris: 0.2%

## CCCCNC(=O)C#CI [Example 4, N-(n-Butyl)-3-iodopropiolamide]
[1]
  Ratio of weight loss (%), C. versicolor: 1.6%
[2]
  Ratio of weight loss (%), T. palustris: 0.0%
[3]; [4]
  Death rate (%): 0%
[3]; [5]
  Death rate (%): 0%
[3]; [6]
  Death rate (%): 30%
[3]; [7]
  Death rate (%): 100%
[3]; [8]
  Death rate (%): 0%
[3]; [9]
  Death rate (%): 30%
[3]; [10]
  Death rate (%): 100%
[3]; [11]
  Death rate (%): 100%

## CCC(C)NC(=O)C#CI (centres unmarked) [Example 5, N-(sec-Butyl)-3-iodopropiolamide]
[1]
  Ratio of weight loss (%), C. versicolor: 7.2%
[2]
  Ratio of weight loss (%), T. palustris: 2.5%

## CC(C)CNC(=O)C#CI [Example 6, N-Isobutyl-3-iodopropiolamide]
[1]
  Ratio of weight loss (%), C. versicolor: 1.5%
[2]
  Ratio of weight loss (%), T. palustris: 0.0%

## CCCCCNC(=O)C#CI [Example 7, N-(n-Pentyl)-3-iodopropiolamide]
[1]
  Ratio of weight loss (%), C. versicolor: 3.1%
[2]
  Ratio of weight loss (%), T. palustris: 2.2%

## CCCCCCNC(=O)C#CI [Example 8, N-(n-Hexyl)-3-iodopropiolamide]
[1]
  Ratio of weight loss (%), C. versicolor: 1.7%
[2]
  Ratio of weight loss (%), T. palustris: 1.3%
[3]; [4]
  Death rate (%): 0%
[3]; [5]
  Death rate (%): 0%
[3]; [6]
  Death rate (%): 20%
[3]; [7]
  Death rate (%): 100%
[3]; [8]
  Death rate (%): 0%
[3]; [9]
  Death rate (%): 0%
[3]; [10]
  Death rate (%): 70%
[3]; [11]
  Death rate (%): 100%

## CCCCCCCNC(=O)C#CI [Example 9, N-(n-Heptyl)-3-iodopropiolamide]
[1]
  Ratio of weight loss (%), C. versicolor: 12.0%
[2]
  Ratio of weight loss (%), T. palustris: 3.3%

## CCCCCCCCNC(=O)C#CI [Example 10, N-(n-Octyl)-3-iodopropiolamide]
[1]
  Ratio of weight loss (%), C. versicolor: 8.4%
[2]
  Ratio of weight loss (%), T. palustris: 5.0%

## CCCCCCCCCNC(=O)C#CI [Example 11, N-(n-Nonyl)-3-iodopropiolamide]
[1]
  Ratio of weight loss (%), C. versicolor: 14.2%
[2]
  Ratio of weight loss (%), T. palustris: 5.8%
